Data as given in US20130029928A1 (priority 2010, published 2013).
Read-outs that look alike come from different tables or passages of the source.

Assay: Phase I study CXR1002-001: plasma pharmacokinetics (LC-MS/MS)
Format: in vivo, human
Conditions: for concentration at 696 h: 696 hr (Day 29)
Description: PK samples, PD (fasting) samples, blood glucose, and blood triglyceride samples, were taken over a 6-week period.
Dose limiting toxicity (DLT) will be based on the toxicity assessments over the first 3-week period of the repeat dosing schedule. PK samples (single blood sample) were taken on the following basis: • Every 6 weeks during the repeat dosing phase • If dosing is interrupted or stopped, samples will be taken at intervals according to patient convenience • PK sampling for safety evaluation may take place at any time, as clinically indicated
Plasma samples were collected after the single 50 mg dose at the following timepoints: Pre-dose, and then 0.25, 0.5, 0.75, 1, 1.5, 2, 3, 4, 6, 24, 48, and 72 hours after administration and then once weekly at weeks 2, 3, 4, 5, and 6 (days 8, 15, 22, 29, and 36). For patients treated with the weekly repeat dose, plasma samples were collected at the following timepoints: Pre-dose and then 2, 3, 4 and 24 hours after administration for a total of 6 weeks. Thereafter a single sample was collected every 6 weeks for monitoring of exposure during long term treatment. Plasma samples were processed at site and stored at −80° C. prior to batch shipment to the analytical laboratory.

[1] = human, plasma, oral, 50 mg, Patient 001 Dose 50 mg
[2] = human, plasma, oral, 50 mg, Patient 001 Dose 50 mg, read-out: Concentration
[3] = human, plasma, oral, 50 mg, Patient 002 Dose 50 mg
[4] = human, plasma, oral, 50 mg, Patient 002 Dose 50 mg, read-out: Concentration
[5] = human, plasma, oral, 50 mg, Patient 003 Dose 50 mg

## O=C(O)C(F)(F)C(F)(F)C(F)(F)C(F)(F)C(F)(F)C(F)(F)C(F)(F)F [CXR1002]
1200 mg weekly dose over a 5 week period, one patient
  maximal plasma level recorded: 1530 µM
Patient 032, 950 mg, person, plasma, 0 hr (pre-dose)
  Concentration: BLQ
Clinical trials
  oral bioavailability: orally bioavailable
female, human, plasma, oral, Female, plasma, 168 hr (Day 8), read-out: Concentration
  concentration at 168 h: 146 µM
female, human, plasma, oral, Female, plasma, 170 hr, read-out: Concentration
  concentration at 170 h: 276 µM
female, human, plasma, oral, Female, plasma, 171 hr, read-out: Concentration
  concentration at 171 h: 253 µM
female, human, plasma, oral, Female, plasma, 172 hr, read-out: Concentration
  concentration at 172 h: 248 µM
female, human, plasma, oral, Female, plasma, 192 hr (Day 9), read-out: Concentration
  concentration at 192 h: 246 µM
female, human, plasma, oral, Female, plasma, 504 hr (Day 22), read-out: Concentration
  concentration at 504 h: 333 µM
female, human, plasma, oral, Female, plasma, 506 hr, read-out: Concentration
  concentration at 506 h: 427 µM
female, human, plasma, oral, Female, plasma, 507 hr, read-out: Concentration
  concentration at 507 h: 412 µM
female, human, plasma, oral, Female, plasma, 528 hr (Day 23), read-out: Concentration
  concentration at 528 h: 405 µM
female, human, plasma, oral, Female, plasma, 840 hr (Day 36), read-out: Concentration
  concentration at 840 h: 434 µM
female, human, plasma, oral, Female, plasma, 842 hr, read-out: Concentration
  concentration at 842 h: 461 µM
female, human, plasma, oral, Female, plasma, 843 hr, read-out: Concentration
  concentration at 843 h: 457 µM
female, human, plasma, oral, Female, plasma, 844 hr, read-out: Concentration
  concentration at 844 h: 482 µM
female, human, plasma, oral, Female, plasma, 864 hr (Day 37), read-out: Concentration
  concentration at 864 h: 526 µM
[1]
  concentration at 0 h: 0 µM
  concentration at 0.25 h: 0.35 µM
  concentration at 1.5 h: 25.7 µM
  concentration at 6 h: 14.7 µM
  concentration at 48 h: 12.8 µM
human, plasma, oral, 50 mg, Patient 001 Dose 50 mg, 0.5 hr
  concentration at 0.5 hr: 1.11 µM
human, plasma, oral, 50 mg, Patient 001 Dose 50 mg, 0.75 hr
  concentration at 0.75 hr: 9.17 µM
human, plasma, oral, 50 mg, Patient 001 Dose 50 mg, 1 hr
  concentration at 1 hr: 14.4 µM
human, plasma, oral, 50 mg, Patient 001 Dose 50 mg, 2 hr, read-out: Concentration
  concentration at 2 h: 22.5 µM
[2]
  concentration at 3 h: 20.8 µM
  concentration at 24 h: 13.8 µM
  concentration at 696 h: 10.2 µM
human, plasma, oral, 50 mg, Patient 001 Dose 50 mg, 72 hr
  concentration at 72 hr: 9.7 µM
human, plasma, oral, 50 mg, Patient 001 Dose 50 mg, 192 hr (Day 8), read-out: Concentration
  concentration at 192 hr: 8.54 µM
human, plasma, oral, 50 mg, Patient 001 Dose 50 mg, 360 hr (Day 15), read-out: Concentration
  concentration at 360 hr: 8.63 µM
human, plasma, oral, 50 mg, Patient 001 Dose 50 mg, 528 hr (Day 22), read-out: Concentration
  concentration at 528 h: 11.6 µM
human, plasma, oral, 50 mg, Patient 001 Dose 50 mg, 864 hr (Day 36), read-out: Concentration
  concentration at 864 h: 8.89 µM
human, plasma, oral, 50 mg, Patient 001 Dose 50 mg, Day 144
  concentration at 144 day: 226 µM
human, plasma, oral, 50 mg, Patient 001 Dose 50 mg, Day 179
  concentration at 179 day: 250 µM
human, plasma, oral, 50 mg, Patient 001 Dose 50 mg, Day 227
  concentration at 227 day: 308 µM
human, plasma, oral, 50 mg, Patient 001 Dose 50 mg, Day 268
  concentration at 268 day: 268 µM
[3]
  concentration at 0 h: 0 µM
  concentration at 0.25 h: 3.06 µM
  concentration at 1.5 h: 29.8 µM
  concentration at 6 h: 17.5 µM
  concentration at 48 h: 13.3 µM
human, plasma, oral, 50 mg, Patient 002 Dose 50 mg, 0.5 hr
  concentration at 0.5 h: 7.62 µM
human, plasma, oral, 50 mg, Patient 002 Dose 50 mg, 0.75 hr
  concentration at 0.75 h: 8.39 µM
human, plasma, oral, 50 mg, Patient 002 Dose 50 mg, 1 hr
  concentration at 1 h: 8.55 µM
[4]
  concentration at 3 h: 22.8 µM
  concentration at 24 h: 14.3 µM
  concentration at 696 h: 21 µM
human, plasma, oral, 50 mg, Patient 002 Dose 50 mg, 4 hr, read-out: Concentration
  concentration at 4 h: 14.5 µM
human, plasma, oral, 50 mg, Patient 002 Dose 50 mg, 72 hr
  concentration at 72 h: 15.6 µM
human, plasma, oral, 50 mg, Patient 002 Dose 50 mg, 192 hr (Day 8), read-out: Concentration
  concentration at 192 h: 17.2 µM
human, plasma, oral, 50 mg, Patient 002 Dose 50 mg, 360 hr (Day 15), read-out: Concentration
  concentration at 360 h: 18.6 µM
human, plasma, oral, 50 mg, Patient 002 Dose 50 mg, 528 hr (Day 22), read-out: Concentration
  concentration at 528 h: 21.5 µM
human, plasma, oral, 50 mg, Patient 002 Dose 50 mg, 864 hr (Day 36), read-out: Concentration
  concentration at 864 h: 20.1 µM
[5]
  concentration at 0 h: 0.14 µM
  concentration at 0.25 h: 1.08 µM
